Experimental findings from publication PMC11432795, “Mutagenesis of the Peptide Inhibitor of ASIC3 Channel Introduces Binding to Thumb Domain of ASIC1a but Reduces Analgesic Activity” (Marine Drugs, 2024) are described below.

One test deals with T1, rat ASIC1a channel (Rattus norvegicus, UniProt P55926).
T1 construct: expressed in transfected cells; host or cells: Xenopus laevis oocytes injected with mRNA made from a pCI-rASIC1a plasmid
T1 sequence (P55926 1-526): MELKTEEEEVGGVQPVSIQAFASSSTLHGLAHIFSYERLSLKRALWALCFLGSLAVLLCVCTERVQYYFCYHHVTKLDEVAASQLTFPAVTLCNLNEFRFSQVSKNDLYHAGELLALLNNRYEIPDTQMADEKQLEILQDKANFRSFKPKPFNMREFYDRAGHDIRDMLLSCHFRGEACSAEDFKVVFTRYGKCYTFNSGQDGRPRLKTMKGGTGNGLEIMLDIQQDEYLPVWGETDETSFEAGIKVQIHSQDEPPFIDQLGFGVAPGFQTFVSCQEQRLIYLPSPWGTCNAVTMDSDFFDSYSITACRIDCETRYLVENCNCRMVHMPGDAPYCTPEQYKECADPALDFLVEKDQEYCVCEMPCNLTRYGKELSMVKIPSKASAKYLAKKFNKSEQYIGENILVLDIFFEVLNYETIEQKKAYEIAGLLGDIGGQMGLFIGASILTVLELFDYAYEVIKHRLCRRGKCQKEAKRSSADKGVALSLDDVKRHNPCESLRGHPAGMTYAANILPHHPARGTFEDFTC
The test can be described thus: Two-electrode voltage clamp, rat ASIC1a in X. laevis oocytes. It is filed as cell-based. How it is done: Figure 3 The effect of mutant peptides S16K and A23K on rat ASIC1a and ASIC3 channels. […] (B) Dose–response curves for the inhibitory effect of mutant peptides on ASIC1a. Each data point represents data from 5 cells. (C) Representative current traces of Ugr9-1, S16K, and A23K at a concentration of 12.5 µM on ASIC3. […] Each point represents data from 5 cells. The depicted currents were induced by a pH 5.5 stimulus following a conditioning pH of 7.4, with peptides applied for 30 s before the pH stimulus. The holding potential (Vh) was −50 mV, and the time interval between applications ranged from 1 to 2 min. Data are presented as mean ± S.E.M.
A small portion of the ovary was isolated from frogs under anesthesia induced by a 0.17% solution of procaine methanesulphonate (MS222) (Sigma), followed by treatment with collagenase (1 mg/mL) at room temperature for 2 h. Oocytes at stages IV and V, devoid of follicular membranes, were transferred to ND-96 medium (containing 96 mM NaCl, 5 mM HEPES, 2 mM KCl, 1.8 mM CaCl2, 1 mM MgCl2, pH 7.4). mRNA synthesis was performed from pcDNA3.1 vectors (Invitrogen, Carlsbad, CA, USA) containing the rat ASIC3 gene, as well as pCI vectors containing genes for rat ASIC1a, its mutant analogues, and ASIC1b. mRNA (2.5–10 ng) was then injected into the oocytes. For the ASIC1a/3 heteromeric channels, the mRNA encoding the ASIC1a and ASIC3 subunits were injected in a 1:5 ratio, respectively. Subsequently, the oocytes were incubated for 2–3 days at a temperature of 17–19 °C in ND96 medium supplemented with gentamicin and streptomycin (20 µg/mL each).
Whole-cell electrophysiological recordings of ASIC channels were conducted using a two-electrode voltage-clamp setup. Microelectrodes were filled with 3 M KCl. Recordings from oocytes were carried out at a holding potential of −50 mV, with data filtered at 10 Hz and sampled at a rate of 100 Hz using an L780M ADC (LCard, Moscow, Russia). The synchronized delivery of solutions into the chamber and recording of electrophysiological results were carried out using in-house software v.2. Activation of ASIC channels occurred through rapid pH changes in the solution, achieved by replacing the working solution in the chamber with ND96-based solutions at varying pH levels. Specifically, HEPES was substituted with 10 mM MES for pH 5.5–6.5 and MOPS for pH 6.7–7.0.
Fresh peptide solutions were meticulously prepared in ND96 buffer with a pH of 7.43 immediately before experiments, with strict control over the pH levels. Peptides were applied for 30 s at a conditioning pH of 7.43 before acid stimulation of the channel. The interval between applications was maintained at a minimum of 1.5 to 2 min.
Electrophysiological data analysis was conducted using OriginPro 2018 software (OriginLab, Northampton, MA, USA). Dose–response relationships for Ugr9a-1, S16K, and A23K peptides were fitted using a Hill function: F1(x) = A − A/(1 + (x/IC50)^nH), where F1(x) represents the amplitude of the current at concentration x of the peptide, A is the maximum amplitude of the current, IC50 is the half-maximum inhibitory concentration of the peptide, and nH is the Hill coefficient.

In test [1] the test system is rat ASIC1a D355A mutant channel. The test can be described thus: Two-electrode voltage clamp, D355A mutant ASIC1a in X. laevis oocytes. It is filed as cell-based. Particulars: 10 µM; pH 5.5 stimulus, conditioning pH 7.4, peptide 30 s; n = 5. On the procedure:
Figure 5 The pivotal role of residue D355 in the ASIC1a channel for the action of the A23K peptide ligand. (A,B) pH dependence of steady-state desensitization (A) and activation (B) in mutant channels (D355A and E357A) compared to the wild-type channel (wt). Each data point represents results from 5 cells. (C–E) Representative current traces illustrating the effects of A23K at a concentration of 10 µM on wt (C), D355A (D), and E357A (E) channels. Currents were evoked by a pH 5.5 stimulus following a conditioning pH of 7.4, with the peptide applied for 30 s preceding the pH stimulus. (F) Bar graph quantifying the effects depicted in (C,D) as a percentage of the corresponding control currents (n = 5). A value of 1.0, represented by a dotted line, corresponds to control measurements at pH 5.5 for each form of ASIC1a. The data are expressed as mean ± SEM; *** p < 0.001, **** p < 0.0001, ns non-significant vs. control, unpaired t-test.
To introduce D355A and E357A substitutions, we designed two pairs of primers. For D355A substitution, the forward primer sequence was 5′–[…]–3′, and the reverse primer (R2) for D355A was 5′–CTAGGAAGTCCAGGGCAG–3′. For E357A substitution, the forward primer sequence was 5′–[…]–3′, and the reverse primer for E357A was the same as for D355A (designated as “R2”). […]
On the technique in general: Two-electrode voltage clamp is typically applied to oocytes expressing channels or transporters.

Entries after “also recorded” stand apart in the source; their conditions may differ. Positions of bridges follow the written chain, without caps; N, C: chain ends. Residues, ends and D or L forms follow the SMILES beside them.

Turning to `CC[C@H](C)[C@H](N)C(=O)N[C@@H](CO)C(=O)N[C@H](C(=O)N[C@@H](CC(=O)O)C(=O)N1CCC[C@H]1C(=O)N1CCC[C@H]1C(=O)N[C@H]1CSSC[C@@H]2NC(=O)[C@H](CC(N)=O)NC(=O)CNC(=O)[C@H](CO)NC(=O)CNC(=O)[C@H](CC(=O)O)NC(=O)[C@H](CCCNC(=N)N)NC(=O)[C@H](Cc3c[nH]cn3)NC(=O)[C@H](Cc3ccc(O)cc3)NC(=O)[C@H](CSSC[C@@H](C(=O)NCC(=O)N[C@@H](C)C(=O)N[C@H](C(=O)O)C(C)C)NC(=O)CNC(=O)[C@H](Cc3ccc(O)cc3)NC(=O)[C@H](C)NC(=O)[C@H](CC(=O)O)NC(=O)[C@H](Cc3ccc(O)cc3)NC(=O)[C@H](C(C)C)NC2=O)NC(=O)[C@H](Cc2ccccc2)NC(=O)[C@H](CCCNC(=N)N)NC1=O)[C@@H](C)CC` [Ugr9-1] (H-ISIDPPCRFCYHRDGSGNCVYDAYGCGAV-OH; disulfide 7-19, 10-26), the “effect on ASIC1a at 50 µM” value on rat ASIC1a channel (50 µM, representative current traces, pH 5.5 stimulus, conditioning pH 7.4) is reported as “lack of effect”. For the same compound, the “activity towards rASIC1a” value at rat ASIC1a channel (pH 5.5 stimulus, conditioning pH 7.4) is reported as “no activity”.

As to `CC[C@H](C)[C@H](N)C(=O)N[C@@H](CO)C(=O)N[C@H](C(=O)N[C@@H](CC(=O)O)C(=O)N1CCC[C@H]1C(=O)N1CCC[C@H]1C(=O)N[C@H]1CSSC[C@@H]2NC(=O)[C@H](CC(N)=O)NC(=O)CNC(=O)[C@H](CO)NC(=O)CNC(=O)[C@H](CC(=O)O)NC(=O)[C@H](CCCNC(=N)N)NC(=O)[C@H](Cc3c[nH]cn3)NC(=O)[C@H](Cc3ccc(O)cc3)NC(=O)[C@H](CSSC[C@@H](C(=O)NCC(=O)N[C@@H](C)C(=O)N[C@H](C(=O)O)C(C)C)NC(=O)CNC(=O)[C@H](Cc3ccc(O)cc3)NC(=O)[C@H](CCCCN)NC(=O)[C@H](CC(=O)O)NC(=O)[C@H](Cc3ccc(O)cc3)NC(=O)[C@H](C(C)C)NC2=O)NC(=O)[C@H](Cc2ccccc2)NC(=O)[C@H](CCCNC(=N)N)NC1=O)[C@@H](C)CC` [A23K] (H-ISIDPPCRFCYHRDGSGNCVYDKYGCGAV-OH; disulfide 7-19, 10-26), the inhibition at 10 µM on rat ASIC1a channel (10 µM, pH 5.5 stimulus, conditioning pH 7.4, peptide 30 s, mean ± SEM, n = 5, read-out: inhibitory effect on wild-type ASIC1a) is 74.9 ± 6.5%. Further, the “activity on ASIC1a compared to S16K” value at rat ASIC1a channel (A23K versus S16K) is “over three times more active than S16K”. Besides, on rat ASIC1a channel (inhibition of rat ASIC1a, pH 5.5 stimulus, conditioning pH 7.4, mean ± S.E.M., 5 cells), the “Hill slope (nH)” value came out at 2.84 ± 0.31. Further, the IC50 at rat ASIC1a channel (rat ASIC1a, X. laevis oocytes, TEVC, Vh −50 mV, pH 5.5 stimulus, conditioning pH 7.4, peptide 30 s before stimulus, mean ± S.E.M., 5 cells, read-out: half-maximal inhibitory concentration (IC50)) is 6.72 µM. Besides, the “inhibitory effect on D355A mutant channel” value in test [1] was “no significant effect; also recorded: entirely abolished”.
